Article PMC5768343, “A natural inhibitor of kidney-type glutaminase: a withanolide from Physalis pubescens with potent anti-tumor activity” (Oncotarget, 2017)

Experiments:
[1] = biological target: T1, catalytic domain of human KGA (cKGA) (Homo sapiens, UniProt O94925); test: In vitro KGA enzyme inhibition assay (GDH-coupled, NADH absorbance 340 nm); type: biochemical
T1 sequence (O94925 221-553): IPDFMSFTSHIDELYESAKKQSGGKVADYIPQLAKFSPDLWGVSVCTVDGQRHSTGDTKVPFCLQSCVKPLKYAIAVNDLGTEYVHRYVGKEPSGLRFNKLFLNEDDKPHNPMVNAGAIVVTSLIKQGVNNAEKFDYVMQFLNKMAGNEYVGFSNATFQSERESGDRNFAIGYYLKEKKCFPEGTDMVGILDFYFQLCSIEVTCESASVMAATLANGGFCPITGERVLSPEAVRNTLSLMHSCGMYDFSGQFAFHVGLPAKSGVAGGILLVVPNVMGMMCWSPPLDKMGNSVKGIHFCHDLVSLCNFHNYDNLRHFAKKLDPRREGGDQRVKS
Procedure: To validate the finding of the virtual ligand screening, the catalytic domain of human KGA (cKGA) was expressed by recombinant technique. […] Enzyme kinetics has been measured to explore the mode of inhibition.
Specific details were referenced to our previous work. Briefly, The catalytical domain of human KGA (cKGA) encoding amino acids 221–553 was cloned into pET26b vector with C-terminal His tag. The cKGA was then expressed in E.coli BL21 (DE3)-RIL-Condon plus. Cultures were grown in LB media contain 35 mg/L kanamycin at 37°C to OD value in 0.6–0.8, then induced at 16°C with 0.4 mM IPTG for 16 h. Cultures were harvested by centrifugation at 3500 g for 8 minutes. Cell pellets were sonicated in a buffer containing 50 mM Hepes (pH 7.5), 500 mM NaCl, 5mM imidazole, […], 1 mM DTT, 0.1% Triton X-100, and final 1 mM PMSF (Sigma-Aldrich USA). The cKGA were purified by affinity chromatography by Ni-NTA agarose, and further purified by size exclusion chromatography (Superdex 200, GE-health care, USA). The purified cKGA was stored in buffer containing 20 mM Hepes (pH 7.5), 200 mM NaCl, 10% glycerol and 3 mM DTT.
The KGA profiling assays were to evaluate the compound-dependent inhibition of KGA in vitro catalytic assay. Specific details were referenced to our previous work. Briefly, the KGA catalyzed the glutamine into glutamate plus ammonium, and then glutamate plus NAD converted to α-ketoglutarate and NADH by the catalysis of GDH. The elevated absorbance at 340 nm with the form of NADH was recorded using a microplate reader. The enzymatic activity was measured in 100 μL system. Mixed buffer containing 0.15 M K2HPO4, 50 mM Tris-Acetate pH 8.6, 0.1 mg/mL bovine serum albumin (BSA), 0.25 mM EDTA, 1 mM DTT, 4 mM NAD were prepared. Then, 10 mM glutamine, 1 unit of glutamate dehydrogenase (GDH) and inhibitor were added in the mix. Final concentration of 1 μM cKGA was added to initiate the reaction. Generation of NADH was monitored by 340 nm absorbance every minute for 20 minutes at 37°C. The IC50 values were calculated by fitted regression equation using the-log plot (GraphPad Prism). Each value was on behalf of the means ± SD of three independent tests, each with three replicates.

[2] = system: SW1990 cells; test: EdU and DAPI double staining proliferation assay, SW1990; type: cell-based, human; conditions: 5 μM
Procedure: The logarithmic growth phase cells were seeded in 24-well plates at 2 × 10^4 ∼ 5 × 10^5 cells per well. After 4–6 h, the medium was removed, the medium containing no or different concentrations of compound was replaced, and 50 μM of EdU was added. 2 h later, the medium was removed, cells washed by PBS. 200 μL of cell fixative (i.e., PBS containing 4% paraformaldehyde) was added and incubated at room temperature for 30 minutes. The solution was discarded and 200 μL of 2 mg/mL glycine was added to each well. After 5 minutes of incubation, the glycine solution was discarded. Each well washed with 200 μL of PBS, rinse for 5 minutes, and PBS was removed. Apollo staining was added to each well with 200 μL of 1 X Apollo® staining solution. After incubation for 30 minutes at room temperature and decolorization, the reaction solution was discarded. Similarly, 200 μL of 1 × Hoechst 33342 solution was added to each well to dye the total DNA. After 30 minutes of incubation at room temperature and the reaction solution was discarded, and then the images were captured and analyzed by fluorescence microscopy.

[3] = system: human normal liver cell LO2; test: CCK8 cytotoxicity / proliferation assay, LO2; type: cell-based; conditions: CCK8, 48 h
Procedure: The experiment was performed in triplicate.

Structure (SMILES): CO[C@H]1O[C@@H]([C@@H](C)[C@H]2C[C@H](OC(C)=O)[C@H]3[C@@H]4C[C@H]5O[C@]56[C@@H](O)C=CC(=O)[C@]6(C)[C@H]4CC[C@@]32C)C[C@]2(C)O[C@]12C [physapubescin K]
- IC50 ([1]; 1 μM cKGA, 10 mM glutamine, 37°C): 0.52 ± 0.06 µM
- catalytic rate of cKGA ([1]; 5 μM compound, after substrate concentration was increased from 10 mM to 40 mM (0 at 10 mM)): 0.02 ∆OD/min
- inhibition of the activity of KGA ([1]; 5 μM compound, substrate concentration 10 mM): completely inhibit
- mode of inhibition ([1]; higher concentration, increases in Km for glutamine): competitive
- mode of inhibition ([1]; low concentration, decrease in Vmax, little effect on Km for glutamine): non-competitive
- reversibility of inhibition ([1]; saturated inhibition assay, 5 μM): reversible
- proliferated cell ratio [2]: close to zero
- IC50 [3]: 11.7 ± 0.32 µM
